Laboratory results published in PMC11355918, “Inhibition of Soluble Epoxide Hydrolase by Cembranoid Diterpenes from Soft Coral Sinularia maxima: Enzyme Kinetics, Molecular Docking, and Molecular Dynamics” (Marine Drugs, 2024).
Read-outs that look alike come from different tables or passages of the source.

Assays:
sEH = details: cited from earlier work
recombinant human sEH [1] = molecular target: T1, recombinant human sEH (Homo sapiens, UniProt P34913); experiment: biochemical; details: PHOME substrate, 37 °C, 60 min, mean ± SD (n = 3); read-out: IC50 (sEH inhibitory effect)
T1 sequence (P34913 1-555): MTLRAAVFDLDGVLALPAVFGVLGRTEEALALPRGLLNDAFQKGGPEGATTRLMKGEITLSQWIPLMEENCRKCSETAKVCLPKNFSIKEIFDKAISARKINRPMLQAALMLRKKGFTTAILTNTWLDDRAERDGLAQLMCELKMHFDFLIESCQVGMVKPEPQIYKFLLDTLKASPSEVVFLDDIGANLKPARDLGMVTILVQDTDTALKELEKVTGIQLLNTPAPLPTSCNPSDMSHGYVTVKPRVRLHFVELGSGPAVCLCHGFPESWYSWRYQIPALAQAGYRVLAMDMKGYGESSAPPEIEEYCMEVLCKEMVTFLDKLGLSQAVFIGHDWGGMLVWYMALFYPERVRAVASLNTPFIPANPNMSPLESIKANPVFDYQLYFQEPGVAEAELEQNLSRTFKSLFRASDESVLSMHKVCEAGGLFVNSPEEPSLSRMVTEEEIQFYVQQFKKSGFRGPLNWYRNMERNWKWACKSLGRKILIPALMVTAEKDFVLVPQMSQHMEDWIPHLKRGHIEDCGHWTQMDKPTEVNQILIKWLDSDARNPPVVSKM
Method: Bis-Tris (B9754) was purchased from Sigma-Aldrich (St. Louis, MO, USA).
The sEH inhibition assay was performed as described in a previous study, with slight modifications. In 96-well plates, separate mixtures were prepared for each test compound, containing 130 µL of sEH in Bis-Tris buffer with HCl (pH 7.0, containing 0.1% bovine serum albumin) and 20 µL of the test compound (10 mM, diluted in DMSO). Subsequently, 50 µL of PHOME, which serves as a substrate, was added to each well. The mixtures were then incubated at 37 °C, and fluorescence was monitored using the VICTOR Nivo multimode plate reader (PerkinElmer, Waltham, MA, USA) for 60 min, with excitation and emission wavelengths of 330 nm and 460 nm, respectively. […] The inhibitory activity was calculated using the following equation:Inhibitory activity (%) = [1 − (ΔI/ΔC)] × 100%, where ΔI and ΔC are the fluorescence readings of the inhibitor and the control after 60 min, respectively. IC50 values were calculated using SigmaPlot 10.0 (Systat Software, CA, USA). Data are presented as means ± standard deviations from three independent experiments (n = 3, p < 0.05).

recombinant human sEH [2] = molecular target: T1, recombinant human sEH; experiment: Enzyme kinetics of sEH inhibition (Lineweaver-Burk and Dixon plots); assay type: biochemical; details: for Ki: Determined using Dixon plots, read-out: Ki (inhibition constant); for Inhibition Type: Determined using Lineweaver-Burk plots, PHOME 0.1-0.8 mM
Method: The inhibition type of a compound provides insight into how it interacts with the enzyme. […] PHOME concentrations of 0.1, 0.2, 0.4, and 0.8 mM were used, along with compound 3 concentrations of 0, 15, 30, 60, and 90 µM, and compound 9 concentrations of 0, 20, 40, 60, and 100 µM. In the Lineweaver–Burk method, competitive and non-competitive inhibition is indicated by a series of straight lines intersecting at the same point on the y- and x-axes, respectively. […] In most cases, this implies that these inhibitors bind to an allosteric site on the enzyme rather than the active site, thereby preventing the enzyme from functioning regardless of the substrate concentration.
The inhibition constant (Ki) is a measure of the binding affinity of the inhibitor for the enzyme, with a lower value indicating a stronger affinity. Dixon plots were used to determine the Ki values for the compounds.
Enzyme kinetics were analyzed using Lineweaver–Burk and Dixon plots. This approach helped determine the mode of inhibition and the inhibition constant (Ki) at various substrate concentrations, both in the absence (0 μM) and presence of inhibitors. Data were plotted using Microsoft Excel 365.

[3] = protostane-type triterpenoids from Alisma orientale, read-out: IC50 (sEH inhibition)

IC50 (recombinant human sEH [1]) [µM]	Compound	further results
	3β-hydroxy-25-anhydro-alisol F	IC50 (sEH; [3]): 10.1 ± 1.12 µM
> 100	C=C1CC=C2C(C=C(C)CCC3OC3(C)CCC1O)OCC2(C)O (stereo not drawn) [Compound 5, sinumaximol E]	
> 100	C=C(C)[C@H]1C/C=C(\C(=O)OC)CC(=O)C[C@@](C)(O)[C@@H](O)C2=CC(C(=O)OC)=C(C1)O2 [Compound 1, sinumaximol A]	
> 100	C=C1CCC2=C(C)COC2C=C(C)CCC(O)C(C)(O)CCC1O (stereo not drawn) [Compound 8, sinumaximol H]	
> 100	C=C(C)C1CCC2=CC(CC(C)(O)C(O)C3=CC(C(=O)OC)=C(C1)O3)OC2=O (stereo not drawn) [Compound 2, sinumaximol B]	
> 100	C=C1CCC2(O)C(=C)COC2C=C(C)CCC2OC2(C)CCC1O (stereo not drawn) [Compound 4, sinumaximol D]	
	C[C@@H]1CC[C@]2(C(=O)O)CC[C@]3(C)C(=CC[C@@H]4[C@@]5(C)CC(=O)[C@H](O)C(C)(C)[C@@H]5CC[C@]43C)[C@@H]2[C@]1(C)O [2-oxopomolic acid]	IC50 (sEH; triterpenoid from Malus domestica, read-out: IC50 (sEH inhibitory activity)): 11.4 ± 2.7 µM
> 100	C=C(C)[C@H]1CCC2=C[C@@H](C[C@@]3(C)CC(=O)[C@H](CC(=O)C1)O3)OC2=O [Compound 10, 5-epinorcembrene]	
> 100	CC1=CC2OC(=O)C(C)=C2CCC(C)(O)C=CCC(C)(O)C(O)CC1 (stereo not drawn) [Compound 7, sinumaximol G]	
	C=C(C)[C@@H](O)[C@@H](O)C[C@@H](C)C1=C2CC[C@H]3[C@@]4(C)CCC(=O)C(C)(C)[C@@H]4CC[C@]3(C)[C@@]2(C)CC1 [11-deoxy-25-anhydro alisol E]	IC50 (sEH; protostane-type triterpenoids, read-out: IC50 (sEH inhibitory effects)): 5.94 ± 0.54 µM
	3β-hydroxy-alisol G	IC50 (sEH; [3]): 30.4 ± 2.65 µM
> 100	CC1=CC2OCC(C)(O)C2=CCC(C)(O)C=CCC2(C)OC2CC1 (stereo not drawn) [Compound 6, sinumaximol F]	
78.8 ± 2.26	C=C(C)C1CC=C(C(=O)OC)CC(=O)CC(C)(O)C=C2C=C(C(=O)OC)C(OC)(C1)O2 (stereo not drawn) [Compound 9, sethukarailin]	Ki (recombinant human sEH [2]): 55 µM; Inhibition Type (recombinant human sEH [2]): Non-competitive

Compound	IC50 (recombinant human sEH [1]) [µM]	further results
C=C(C)C1CCC23OC2C(CC(C)(O)C=C2C=C(C(=O)OC)C(OC)(C1)O2)OC3=O (stereo not drawn) [Compound 3, sinumaximol C]	70.7 ± 1.44	Ki (recombinant human sEH [2]): 59.4 µM; Inhibition Type (recombinant human sEH [2]): Non-competitive
